This experiment addresses T1, human recombinant collagenase (Homo sapiens, UniProt P03956).
T1 construct: made in house; host or cells: E. coli
T1 sequence (P03956 100-469): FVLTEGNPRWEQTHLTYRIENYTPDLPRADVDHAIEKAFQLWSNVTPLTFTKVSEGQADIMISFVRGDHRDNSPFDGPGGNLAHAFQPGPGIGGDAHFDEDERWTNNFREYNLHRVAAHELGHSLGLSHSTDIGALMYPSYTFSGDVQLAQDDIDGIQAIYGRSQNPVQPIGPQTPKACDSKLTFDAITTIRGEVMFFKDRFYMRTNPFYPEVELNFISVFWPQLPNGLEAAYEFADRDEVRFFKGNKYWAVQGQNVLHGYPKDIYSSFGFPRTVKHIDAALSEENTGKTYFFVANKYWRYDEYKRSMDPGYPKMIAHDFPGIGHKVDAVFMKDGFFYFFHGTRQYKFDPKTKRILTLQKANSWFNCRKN
The experiment can be described thus: Collagenase inhibition assay (Cawston and Barrett). The settings on record: acetylated 3H type 1 bovine collagen, 37° C., 18 h. The class given is biochemical. The procedure:
Procedure 2: The ability of test compounds to inhibit collagenase was investigated using the following procedure.
Collagenase Inhibition Assay:
The potency of compounds to act as inhibitors of collagenase was determined by the method of Cawston and Barrett (Anal. Biochem. 99, 340-345, 1979), hereby incorporated by reference, whereby a 1 mM solution of the inhibitor being tested or dilutions thereof, was incubated at 37° C. for 18 h with collagen and human recombinant collagenase, from synovial fibroblasts cloned, expressed and purified from E. coli, (buffered with 150 mM Tris, pH 7.6, containing 15 mM calcium chloride, 0.05% Brij 35, 200 mM sodium chloride and 0.02% sodium azide). The collagen was acetylated ^3H type 1 bovine collagen prepared by the method of Cawston and Murphy (methods in Enzymology 80, 711,1981) The samples were centrifuged to sediment undigested collagen and an aliquot of the radioactive supernatant removed for assay on a scintillation counter as a measure of hydrolysis. The collagenase activity in the presence of 1 mM inhibitor, or dilution thereof, was compared to activity in a control devoid of inhibitor and the results reported as that concentration effecting 50% of the collagenase (IC50).

Among the data in patent US20030199571A1, “(Hetero) Bicyclymethanesulfonylamino-substituted hydroxamic acid derivatives” (priority 1999, published 2003) are IC50 values, retold here.

Broadly, the IC50 is the point on the concentration scale where inhibition reaches its midpoint.

In the case of `CC(C)(C)C[C@@H](NS(=O)(=O)Cc1ccc2sccc2c1)C(=O)NO` [Example 42], the IC50 was no less than 10 µM.

As to `O=C(NO)[C@@H](Cc1csc2ccccc12)NS(=O)(=O)Cc1ccc2ccccc2c1` [Example 14], the half-inhibitory concentration (IC50) is no less than 10 µM.

Regarding `CC(C)(C)[C@@H](NS(=O)(=O)Cc1ccc2sccc2c1)C(=O)NO` [Example 43], the IC50 is no less than 10 µM.

Take `O=C(NO)[C@@H](Cc1ccccc1)NS(=O)(=O)Cc1ccc2ccccc2c1` [Example 5]: the half-inhibitory concentration (IC50) was no less than 10 µM.

In the case of `CC(C)(C)C[C@@H](NS(=O)(=O)Cc1ccc2ccccc2c1)C(=O)NO` [Example 6], the IC50 is no less than 10 µM.

As for `O=C(NO)[C@@H](CNS(=O)(=O)Cc1ccccc1)NS(=O)(=O)Cc1ccc2sccc2c1` [Example 69, (R)-2-(Benzo[b]thiophen-5-ylmethanesulfonylamino)-N-hydroxy-3-(phenylmethanesulfonylamino)-propionamide], the IC50 is no less than 10 µM.

For the molecule `O=C(NO)[C@@H](Cc1c[nH]c2ccccc12)NS(=O)(=O)Cc1ccc2sccc2c1` [Example 31, (R)-2-(Benzo[b]thiophen-5-ylmethanesulfonylamino)-N-hydroxy-3-(1H-indol-3-yl) propionamide.], the IC50 is no less than 10 µM.

With `O=C(NO)[C@H](NS(=O)(=O)Cc1ccc2sccc2c1)c1ccc(O)cc1` [Example 33], the IC50 was no less than 10 µM.

On to `O=C(NO)[C@@H](CCc1ccccc1)NS(=O)(=O)Cc1ccc2sccc2c1` [Example 38, (R)-2-(Benzo[b]thiophen-5-ylmethanesulfonylamino)-N-hydroxy-4-phenyl-butyramide], for which the IC50 was no less than 10 µM.

For the molecule `O=C(NO)[C@H](NS(=O)(=O)Cc1ccc2sccc2c1)c1ccccc1` [Example 28, (R)-2-(Benzo[b]thiophen-5-ylmethanesulfonylamino)-N-hydroxy-2-phenylacetamide], the IC50 is no less than 10 µM.

With `O=C(NO)[C@@H](CC1CCCCC1)NS(=O)(=O)Cc1ccc2ccccc2c1` [Example 9], the IC50 was no less than 10 µM.

Take `O=C(NO)[C@H](NS(=O)(=O)C[C@@H]1CCc2ccccc2C1)c1ccccc1` [Example 29, (R)-2-Phenyl-2-[(R)-1-(1,2,3,4-tetrahydronaphthalen-2-yl)methanesulfonylamino]-N-hydroxyacetamide]: the IC50 is no less than 10 µM.

Take `O=C(NO)[C@H](NS(=O)(=O)Cc1ccc2ccccc2c1)c1ccc(O)cc1` [Example 12]: the IC50 is no less than 10 µM.

As to `CC(C)c1ccc([C@@H](NS(=O)(=O)Cc2ccc3sccc3c2)C(=O)NO)cc1` [Example 56, (R)-2-(Benzo[b]thiophen-5-ylmethanesulfonylamino)-2-(4-isopropylphenyl)-N-hydroxy-acetamide], the 50% inhibitory concentration (IC50) is no less than 10 µM.
